Measurements reported in patent publication US10758513B2, “Modulators of mitochondrial protein import” (THE REGENTS OF THE UNIVERSITY OF CALIFORNIA, priority 2011, dated 2020).

Legend:
[1] = biological target: Erv2 (Saccharomyces cerevisiae, UniProt Q12284); assay: In vitro Erv2 activity, Amplex Red-HRP assay; format: biochemical, yeast
[2] = biological target: T1, Erv1 (Saccharomyces cerevisiae, UniProt P27882); assay: In vitro Erv1 oxidase activity, Amplex Red-HRP assay; format: biochemical, yeast
T1 construct: made in house
T1 sequence (P27882 1-189): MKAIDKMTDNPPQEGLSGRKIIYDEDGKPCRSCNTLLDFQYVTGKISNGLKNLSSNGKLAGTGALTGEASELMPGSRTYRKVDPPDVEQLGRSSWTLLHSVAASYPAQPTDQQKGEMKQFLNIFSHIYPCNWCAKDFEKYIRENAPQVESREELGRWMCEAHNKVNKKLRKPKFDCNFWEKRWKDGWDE
Method: The primary chemical screen used fresh recombinant Erv1 (in buffer 30 mM Hepes, pH 7.4, 100 mM NaCl, 1 mM EDTA) at a concentration of 10 μM, which was expressed as described previously. […] A Biomek FX (Beckman Coulter) was used to pin transfer 0.5 μl of compound from 1 mM stock or DMSO to respective wells. Approximate screening
concentration was 12.5 μM. After completed compound transfer, all plates were incubated at 25° C. in a humidified incubator for 1 hour. A Titertek multidrop was used to dispense 15 μl of Amplex Red-horseradish peroxidase (HRP) (Sigma) mix into all wells of the 384-well plate. The final concentration of Amplex Red and HRP were 46 μM and 0.092 U/ml, respectively. The Amplex Red-HRP solution was shielded from light during the entire experiment. The plates were incubated for an additional 10 min and then 15 μl of the substrate DTT (20 μM) was added to initiate the reduction of 02 to H2O2. […] Plates were then read at an endpoint using an excitation wavelength of 545 nm and an emission wavelength of 590 nm. […]
H2O2 production was measured using a standard fluorometric assay with Amplex Red and horseradish peroxidase (HRP). […] Fluorescence intensity was measured and reactions that were inhibited by more than 50% were picked as potential Erv1 inhibitors and selected for secondary analysis.

[3] = biological target: T1, Erv1; assay: Reconstitution of substrate oxidation with Mia40 and Erv1; format: biochemical, yeast; conditions: after three hours; DMSO control approximately 80%
Method: (A) Mitochondria from a strain expressing C-terminal histidine-tagged Erv1 were incubated with 50 μM MitoBloCK-6 or 1% DMSO for 30 min at 25° C. followed by solubilization in 1% digitonin buffer. As a control, 100 μg of extract was withdrawn (T), and 500 μg lysate was incubated with Ni+^2-agarose beads. The beads were washed and bound proteins (B) were eluted with SDS-PAGE sample buffer. To test effectiveness of binding, 100 μg of the unbound protein fraction (S) was also included. Proteins were analyzed by immunoblotting with polyclonal antibodies against Mia40, Erv1, and cyt c. […] Oxidized and reduced Tim13 were detected by non-reducing SDS-PAGE and immunoblotting with antibodies against Tim13.
Reconstitution studies with reduced Tim13 were performed as described previously (Tienson et al., 2009). […] H2O2 levels in the reconstitution assays were measured using the Amplex Red Hydrogen Peroxide/Peroxidase Assay kit according to the manufacturer's protocol (Dabir et al., 2007) (Invitrogen). […] The Erv1 or ALR-catalyzed reduction of 02 to H2O2 was measured by a FlexStation plate reader (Molecular Devices) controlled via the SoftMax Pro software package (Molecular Devices) for data acquisition. […]

[4] = system: HeLa cells; assay: MTT cell viability assay in HeLa cells (MitoBloCK-6); format: cell-based; conditions: 100 μM
Method: Measurements for cell viability were made with a MTT based toxicology assay kit (Sigma) as described previously (Hasson et al., 2010). Briefly, HeLa cells were grown in 24-well tissue culture dishes to 80% confluency. Cells were then treated with DMSO or MitoBloCK-6 in complete medium for 12 h and reacted with MTT solution supplement for additional 4 hr as described in manufacturer's protocols. Percentage viability of each cell sample was calculated as: [(absorbance of vehicle treated cells)−(absorbance of MitoBloCK-6 treated cells)/(absorbance of vehicle treated cells)]×100.

[5] = system: HeLa cells; assay: MTT cell viability assay in HeLa cells (MitoBloCK-1); format: cell-based; conditions: 25 μM and 50 μM, 24 hours
Method: Measurements of cell viability/toxicity were made with a MTT based toxicology assay kit (Sigma-Aldrich). HeLa cells were grown in 24-well tissue culture dishes to 80% confluency. […] Following drug treatment, cells were rinsed with phosphate buffered saline and incubated with complete media with MTT solution supplement for additional 4 hours as described in manufacturer's protocols. This media was removed and 500 μL of MTT solubilization solution was added to dissolve the formazan crystals. The formazan absorbance was measured at OD=570 nm on a Wallac Victor plate reader (Perkin Elmer) along with a turbidity measurement at OD=630 nm. After turbidity subtraction, the percent viability of each cell sample was calculated as: [(absorbance of vehicle treated cells−absorbance of drug treated cells)/(absorbance of vehicle treated cells)]×100.

[6] = system: isogenic control (TIM10); assay: Yeast growth inhibition (MIC50), isogenic control (TIM10); format: cell-based; conditions: Saccharomyces cerevisiae
Method: A primary screen was performed using freshly streaked tim10-1 diluted in YPD to an OD600 of approximately 0.0002 and kept on ice throughout the screening run. A Titertek multidrop (Huntsville, Ala.) was used dispense 40 μL of cell suspension to all wells of each clear 384-well plate (Greiner Bio One). After yeast suspension warmed to room temperature, a Biomek FX (Beckman Coulter) was used to pin transfer 0.5 μL of compound from 1 mM stock or DMSO to respective wells. Approximate screening concentration was 12.5 μM. All operations were performed by an automated plate scheduler to ensure consistency across the screening run. After completed compound transfer, all plates were incubated at 25° C. in a humidified incubator until the OD600 reached approximately 0.8 in the control wells; the control consisted of the tim10-1 mutant with the vehicle 1% DMSO. Each plate was shaken in a Beckman orbital shaker to resuspend settled cells, and the OD600 in each well was read by a Wallac Victor plate reader (Perkin Elmer). The top 600 growth inhibitory compounds were determined and assembled into two plates. Using a similar screening methodology, hit compounds were reconfirmed with the tim10-1 strain and growth inhibition was compared to the WT strain (TIM10) as well as the “rescued” strain (tim10-1 TIM10 that contained a copy of the wild-type TIM10 genes on a centromeric plasmid) strains. […]

Erv2, sequence (Q12284 whole entry): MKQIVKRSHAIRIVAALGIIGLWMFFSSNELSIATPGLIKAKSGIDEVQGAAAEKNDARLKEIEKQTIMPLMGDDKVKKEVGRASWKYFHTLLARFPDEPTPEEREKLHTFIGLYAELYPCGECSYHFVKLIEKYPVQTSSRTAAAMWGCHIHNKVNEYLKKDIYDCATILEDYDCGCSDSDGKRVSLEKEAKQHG

Row | SMILES | IC50 [1] | IC50 [2] | Tim13 oxidized [3] | cell viability (MTT) [4] | cell viability (MTT) [5] | MIC50 [6]
1 | Oc1c(Cl)cc(Cl)cc1/C=N/c1ccc(Nc2ccccc2)cc1 [MitoBloCK-6] | 1400 nM | 900 nM | 15% | did not significantly reduce cell viability |  | 
2 | NC(=S)N/N=C/c1c(O)c(Br)cc2oc3c(c12)CCCC3 [MitoBloCK-1] |  |  |  |  | significantly decreased in a dose-responsive manner | > 200 µM
